The values that follow come from paper PMC10043283, “Neuraminidase 1 promotes renal fibrosis development in male mice” (Nature Communications, 2023).

In this test the target is T1, NEU1 (neuraminidase 1) (Homo sapiens, UniProt Q99519).
T1 construct: recombinant human NEU1 protein
The test can be described thus: SPR (Biacore T200, NEU1 immobilized on CM5 chip). The test is classed as binding. (In general: In SPR one partner is held on a chip, and binding of the other changes the refractive index at the surface.)

Where two headings read alike, the source gives them in different places.

`O=C(/C=C/c1ccc(O)c(O)c1/C=C/c1ccc(O)c(O)c1)O[C@H](Cc1ccc(O)c(O)c1)C(=O)O` [SaA, salvianolic acid A]: the equilibrium dissociation constant (Kd) (as a rule, the constant that tells how readily two partners part at equilibrium) (read-out: Kd) came out at 52.3 µM.
Same read-out and setting: then `O=C(/C=C/c1ccc(O)c2c1[C@H](C(=O)O[C@H](Cc1ccc(O)c(O)c1)C(=O)O)[C@@H](c1ccc(O)c(O)c1)O2)O[C@H](Cc1ccc(O)c(O)c1)C(=O)O` [SaB, salvianolic acid B], with 0.0216 µM.
With `O=C(/C=C/c1ccc(O)c(O)c1)O[C@H](Cc1ccc(O)c(O)c1)C(=O)O` [rosmarinic acid], binding was put at a Kd of 0.141 µM.
